According to patent publication US20100130569A1, “PROPHYLACTIC OR THERAPEUTIC AGENT FOR POSTERIOR OCULAR DISEASE COMPRISING NON-ERGOT SELECTIVE D2 RECEPTOR AGONIST AS ACTIVE INGREDIENT” (SATEN PHARMACEUTICAL CO., LTD., priority 2007, published 2010):
Where a name gives a salt, the structure may show the parent alone. Read-outs that look alike come from different tables or passages of the source.

Key:
[1] = test system: photoreceptor cell damage caused by light exposure; settings: for suppressive effect on photoreceptor cell damage (in words): mouse models of light damage, summary of Table 2; for Suppression rate (%) based on a-wave / Suppression rate (%) based on b-wave: mouse, one hour before light exposure, ERG one day after
Description: After a 0.5% (w/v) tropicamide-0.5% phenylephrine hydrochloride ophthalmic solution was instilled into the eyes of a mouse to cause mydriasis, light damage was induced in the mouse by light exposure (exposure conditions: illuminance level: 5000 Lux, exposure time: 2 hours) with an apparatus for inducing light damage (Sakami Medical Instrument).
Compound A was dissolved in a 1% (w/v) methyl cellulose solution (prepared by dissolving methyl cellulose in purified water) at a concentration of 0.006, 0.02, 0.06 or 0.2 mg/ml, whereby solutions of Compound A were prepared. Each of the solutions of Compound A was orally administered once at a dose of 0.03, 0.1, 0.3 or 1 mg/kg one hour before light exposure. Compound B was also orally administered in the same manner. That is, Compound B was dissolved in a 1% (w/v) methyl cellulose solution at a concentration of 0.02 or 0.2 mg/ml, whereby solutions of Compound B were prepared. Each of the solutions of Compound B was orally administered once at a dose of 0.1 or 1 mg/kg one hour before light exposure. In a vehicle administration group, a 1% (w/v) methyl cellulose solution was administered in the same manner.
One day after light exposure, each mouse was given general anesthesia by intramuscular administration of 2 ml/kg of a mixed solution of a 5% (w/v) ketamine hydrochloride injectable solution, a 2% xylazine hydrochloride injectable solution and physiological saline (7:1:8), and a 0.5% (w/v) tropicamide-0.5% phenylephrine hydrochloride ophthalmic solution was instilled into the eyes to cause mydriasis. Then, the electroretinogram (ERG) was measured using portable ERG & VEP LE-3000 (Tomey Corporation) (measurement conditions: stimulus luminance: 3000 cd/m^2, stimulus duration: 10 msec, background light luminance: 0 cd/m^2), and a- and b-wave amplitudes were calculated from the obtained waveforms. Then, the suppression rate (%) of the drug to be evaluated against the decrease in a- and b-wave amplitudes (photoreceptor cell damage) caused by light exposure was calculated in accordance with Equations 3 and 4. The case number in each administration group was 6 to 8 per group, and the mean value was used for calculating the suppression rate.
Suppression rate against photoreceptor cell damage (%) based on a-wave=(AAZ−AAY)/(AAX−AAY)×100 [Equation 3]
AAX: a-wave amplitude in normal (untreated) group AAY: a-wave amplitude in group with light exposure and vehicle administration AAZ: a-wave amplitude in group with light exposure and drug administration
Suppression rate against photoreceptor cell damage (%) based on b-wave=(ABZ−ABY)/(ABX−ABY)×100 [Equation 4]
ABX: b-wave amplitude in normal (untreated) group ABY: b-wave amplitude in group with light exposure and vehicle administration ABZ: b-wave amplitude in group with light exposure and drug administration

[2] = test system: laser-induced choroidal neovascularization; assay: rat models of krypton laser-induced choroidal neovascularization; assay type: in vivo; settings: for inhibitory effect on neovascularization in the choroid (in words): rat models of laser-induced choroidal neovascularization, summary of Table 1; for Suppression rate (%) (inhibition rate of choroidal neovascularization incidence): rat, day 7 after photocoagulation, vs vehicle
Description: The photocoagulation was performed in a posterior fundus at eight spots per eye sparsely by focusing on the retinal deep layer avoiding thick retinal blood vessels (coagulation conditions: spot size: 100 μm, output: 100 mW, coagulation time: 0.1 sec). After the photocoagulation, the ocular fundus was photographed, and the site where the laser was irradiated was confirmed.
Each of the solutions of Compound A at such concentrations was orally administered once daily at a dose of 0.3 mg/kg or 1 mg/kg starting from the day of photocoagulation surgery for 7 days including the day of surgery. […] Each of the solutions of Compound B at such concentrations was orally administered once daily at a dose of 0.3 mg/kg or 1 mg/kg starting from the day of photocoagulation surgery for 7 days including the day of surgery. On the other hand, Compound C was dissolved in PBS (phosphate buffer) at a concentration of 100 mg/ml, and the resulting solution of Compound C was intraperitoneally administered once daily at a dose of 100 mg/kg starting from the day of photocoagulation surgery for […] the day of surgery.
In the fluorescence fundus photography, a spot where fluorescence leakage was not observed (absence of neovascularization) was judged as negative, and a spot where fluorescence leakage was observed was judged as positive (presence of neovascularization). When there are two photocoagulation sites where a little fluorescence leakage was observed, they were judged as positive (presence of neovascularization). […] The case number in each administration group is 7 to 8.
Choroidal neovascularization incidence rate (%)=(Number of positive spots/total number of photocoagulation sites)×100 [Equation 1]
Inhibition rate (%)=(A0−Ax)/A0×100 [Equation 2]
A0: Choroidal neovascularization incidence rate of vehicle administration group Ax: Choroidal neovascularization incidence rate of drug administration group

[3] = test system: thrombin-induced retinal vascular hyperpermeability
Description: A rat was given general anesthesia by intramuscular administration of 1 ml/kg of a mixed solution of a 5% (w/v) ketamine hydrochloride injectable solution and a 2% xylazine hydrochloride injectable solution (7:1), and a 0.5% (w/v) tropicamide-0.5% phenylephrine hydrochloride ophthalmic solution was instilled into the eyes to cause mydriasis. Then, 5 μl of thrombin (600 U/mL) was injected into the vitreous body using a 33-gauge needle so as not to hurt the lens and retina. To a rat in a normal group, PBS (phosphate buffer) was injected instead of thrombin.
In a vehicle administration group, a 1% (w/v) methyl cellulose solution was administered in the same manner.
At 24 hours after intravitreal injection of thrombin, each rat was killed by exsanguination, and then, the eyeball of the rat was enucleated while avoiding contamination with blood. […] The collected vitreous body was appropriately diluted with purified water and the protein concentration was determined by the Bradford method. The thus determined protein concentration in the vitreous body was used as an index of retinal vascular permeability. Then, the suppression rate (%) of the drug to be evaluated against the retinal vascular hyperpermeability induced by thrombin was calculated in accordance with Equation 5. […]

[4] = 0.3 mg/kg orally once daily for 7 days
[5] = 1 mg/kg orally once daily for 7 days

For CC(C)C[C@H]1C(=O)N2CCC[C@H]2[C@]2(O)O[C@](NC(=O)[C@@H]3C=C4c5cccc6[nH]c(Br)c(c56)C[C@H]4N(C)C3)(C(C)C)C(=O)N12 [Compound B, bromocriptine mesilate], the “suppressive effect on photoreceptor cell damage (in words)” value [1] was “hardly or not at all observed”, the “Suppression rate (%) based on a-wave” value ([1]; 0.1 mg/kg orally once) was 0.2% and the “Suppression rate (%) based on b-wave” value ([1]; 0.1 mg/kg orally once) was −3.8%. The “Suppression rate (%) based on a-wave” value ([1]; 1 mg/kg orally once) was 4.8%, the “Suppression rate (%) based on b-wave” value ([1]; 1 mg/kg orally once) was 4.9% and the “inhibitory effect on neovascularization in the choroid (in words)” value (“inhibitory effect on neovascularization” below) [2] was “hardly or not at all observed”. For the same compound, the “Suppression rate (%) (inhibition rate of choroidal neovascularization incidence)” value [2, 4] was −2.1% and the “Suppression rate (%) (inhibition rate of choroidal neovascularization incidence)” value [2, 5] was 4.1%.

With Cl.NCCc1ccc(O)c(O)c1 [Compound C, dopamine hydrochloride] the “inhibitory effect on neovascularization” value [2] was “hardly or not at all observed” and the “Suppression rate (%) (inhibition rate of choroidal neovascularization incidence)” value ([2]; 100 mg/kg intraperitoneally once daily) was 11.8%.

For CCCN[C@H]1CCc2nc(N)sc2C1 [Compound A, pramipexole hydrochloride], the “suppressive effect on retinal vascular hyperpermeability (in words)” value ([3]; rat models of thrombin-induced retinal vascular hyperpermeability, summary of Table 3) was “excellent suppressive effect on retinal vascular hyperpermeability”, the “Suppression rate (%) against retinal vascular permeability” value ([3]; rat, 1 mg/kg orally immediately before and 20 hours after intravitreal thrombin, vitreous protein at 24 hours) was 9.9% and the “suppressive effect on photoreceptor cell damage (in words)” value [1] was “significantly suppresses photoreceptor cell damage”. The “Suppression rate (%) based on a-wave” value ([1]; 0.03 mg/kg orally once) was 41.4%, the “Suppression rate (%) based on b-wave” value ([1]; 0.03 mg/kg orally once) was 49.2% and the “Suppression rate (%) based on a-wave” value ([1]; 0.1 mg/kg orally once) was 47.3%. For the same compound, the “Suppression rate (%) based on b-wave” value ([1]; 0.1 mg/kg orally once) was 44.1%, the “Suppression rate (%) based on a-wave” value ([1]; 0.3 mg/kg orally once) was 70.0% and the “Suppression rate (%) based on b-wave” value ([1]; 0.3 mg/kg orally once) was 72.1%. The “Suppression rate (%) based on a-wave” value ([1]; 1 mg/kg orally once) was 102.0%, the “Suppression rate (%) based on b-wave” value ([1]; 1 mg/kg orally once) was 92.1% and the “inhibitory effect on neovascularization” value [2] was “inhibits choroidal neovascularization”. The “Suppression rate (%) (inhibition rate of choroidal neovascularization incidence)” value [2, 4] was 60.9% and the “Suppression rate (%) (inhibition rate of choroidal neovascularization incidence)” value [2, 5] was 60.9%.
